# Results published in patent US12029797B2, “Fatty acid derivative labeled with positron-emitting radionuclide” (ASTELLAS PHARMA INC., priority 2018, dated 2024).
# “Also recorded” adds a separate entry of the source.
# Tests used:
# Type in all cases: in vivo
# [1] = system: normal cynomolgus monkeys; test: PET test using normal cynomolgus monkey (SUV in heart muscle and bone ROI); conditions: for SUV (Bone): bone ROI (near the spine), n.d. = target organ cannot be confirmed in the image, ROI cannot be set; for accumulation to the heart muscle compared to [^18F]FTO / non-specific accumulation to the bone compared to [^18F]FTO: cynomolgus monkey PET, result in words; for SUV (Heart muscle): heart muscle ROI, about 300 MBq lower extremity vein, male cynomolgus monkey
# Excerpt: Solutions containing each compound prepared in Example 1 (7-[^18F]FTO), Example 2 (6-[^18F]FTO), Reference Example 4 ([^18F]FTO), Reference Example 5 (15-[^18F]FTO), and Reference Example 6 (17-[^18F]FTO) were used to perform a heart contrast PET test using normal cynomolgus monkeys.
# For performing non-invasive PET imaging, in a state in which a male cynomolgus monkey was anesthetized with inhalation anesthetic isoflurane, the monkey was held at a supine body position on a PET camera SHR17000 (manufactured by Hamamatsu Photonics K.K.), the solution containing each compound (about 300 MBq) was administered from the lower extremity vein, and continuous imaging was performed for 180 minutes or 240 minutes after the administration. The PET images were reconstructed by dynamic row-action maximum likelihood algorithm (DRAMA) and average images are obtained every 20 minutes. Then, the region of interest (ROI) was set in the heart muscle region or bone (near the spine), and the accumulation (standardized uptake value (SUV)) of each compound was calculated as {radioactivity count in the ROI (MBq/cc)/[dose (MBq)/body weight (g)]}.
# The SUV values quantified by setting the ROI for the heart muscle and the bone of each compound are shown in Tables 6 and 7 as SUV (heart muscle) and SUV (bone). […] A case where the target organ cannot be confirmed in the image and the ROI cannot be set is denoted as n.d, and a case where measurement is not performed is denoted as n.t. In addition, MIP (Maximum Intensity Projection) PET images 60 minutes and 240 minutes after the administration of the compounds of Reference Example 4 ([^18F]FTO) and Example 1 (7-[^18F]FTO) are shown in FIG. 1.
# [2] = system: DBA2 mouse; test: PET test using normal mouse; radioactivity of isolated heart and femur by gamma counter; conditions: for SUV Femur: isolated femur; for SUV Femur / SUV Heart: 120 minutes after administration, about 10 MBq tail vein, male DBA2 mouse, gamma counter, average ± standard error of 5 cases; for SUV Heart: isolated heart
# Protocol: A whole body contrast PET test was performed using the solution containing the compound of Example 1 (7-[^18F]FTO) or Reference Example 4 ([^18F]FTO) using a DBA2 mouse.
# For performing non-invasive PET imaging, in a state in which a male DBA2 mouse was anesthetized with the inhalation anesthetic isoflurane, the mouse was held in a supine body position on a PET camera Inveon (manufactured by Siemens), the solution containing each compound (about 10 MBq) was administered from the tail vein, and after 90 minutes from the administration, PET imaging was performed for 5 minutes. The PET image was reconstructed and then image processing was performed. The heart and femur were isolated 120 minutes after the administration, and the amount of radioactivity was measured with a gamma counter 2480 WIZARD^2 (manufactured by PerkinElmer Inc.). The accumulation (SUV) of each compound was calculated as {radioactivity count (MBq/cc)/[dose (MBq)/body weight (g)] in the target organ}.
# [3] = system: myocardial infarction model rat; test: PET test using model rat with myocardial infarction by coronary artery ligation; conditions: male SD rat, about 10 MBq tail vein, 20 minutes after administration, versus untreated rat
# Protocol: A myocardial infarction model was prepared by coronary artery ligation using SD rats, and a thoracic contrast PET test was performed using the solution containing the compound of Example 1 (7-[^18F]FTO).
# In a state in which an untreated rat or a model rat with myocardial infarction was anesthetized with the inhalation anesthetic isoflurane using a male SD rat, the rat was held in a supine body position on a PET camera Inveon (manufactured by Siemens), and the solution containing the compound (about 10 MBq) was administered from the tail vein. After 20 minutes from the administration, PET imaging was performed for 5 minutes. The PET image was reconstructed and then image processing was performed.
# [4] = 20 Minutes after administration
# [5] = 60 Minutes after administration
# [6] = 120 Minutes after administration
# [7] = 240 Minutes after administration
# [8] = mouse, extracted organs, result in words
Structure (SMILES),"SUV (Bone) [1, 4]","SUV (Bone) [1, 5]","SUV (Bone) [1, 6]","SUV (Bone) [1, 7]",accumulation to the heart muscle compared to [^18F]FTO [1],non-specific accumulation to the bone compared to [^18F]FTO ([1]; listed as 17-[^18F]FTO),"SUV (Heart muscle) [1, 4]","SUV (Heart muscle) [1, 5]","SUV (Heart muscle) [1, 6]","SUV (Heart muscle) [1, 7]",non-specific accumulation to the bone compared to [^18F]FTO ([1]; listed as 7-[^18F]FTO),SUV Femur [2],SUV Heart [2],"accumulation to the heart compared to Reference Example 4 [2, 8]","non-specific accumulation in the bone compared to Reference Example 4 [2, 8]",coronal section PET image of the heart in the myocardial infarction model rat [3],non-specific accumulation to the bone compared to [^18F]FTO [1],non-specific accumulation to the bone compared to [^18F]FTO ([1]; listed as 15-[^18F]FTO)
"CC([18F])CCCCCC/C=C\CCCCSCCC(=O)O (stereo not shown) [Reference Example 6, 3-{[(5Z)-13-[^18F]fluorotetradeca-5-en-1-yl]sulfanyl}propanoic acid]",1.11,1.28,1.94,3.23,slightly reduced,equivalent or reduced; also recorded: the accumulation in the bone was also observed,5.88,5.78,4.86,2.60,,,,,,,,
"CCCCCCCC/C=C\CC([18F])CCSCCC(=O)O (stereo not shown) [Example 1, 3-{[(5Z)-3-[^18F]fluorotetradeca-5-en-1-yl]sulfanyl}propanoic acid]",,,,,further increased,,8.46,9.26,8.85,8.35,equivalent or reduced; also recorded: not detected at all,0.48 ± 0.04,3.53 ± 0.77,excellent accumulation to the heart,low non-specific accumulation in the bone,the signal was deleted in a part of the elliptical heart,,
"O=C(O)CCSCCCC/C=C\CCCCCCCC[18F] [Reference Example 4, 3-{[(5Z)-14-[^18F]fluorotetradeca-5-en-1-yl]sulfanyl}propanoic acid, reference compound]",1.42 ± 0.10,2.27 ± 0.13,3.82 ± 0.60,6.15 ± 1.02,,,6.45 ± 0.59,6.54 ± 0.51,5.90 ± 0.58,4.63 ± 0.57,,2.03 ± 0.32,1.52 ± 0.25,,,,,
"CCCCCCCC/C=C\CCC([18F])CSCCC(=O)O (stereo not shown) [Example 2, 3-{[(5Z)-2-[^18F]fluorotetradeca-5-en-1-yl]sulfanyl}propanoic acid]",1.56,1.96,2.49,,further increased,,8.35,7.25,6.60,,,,,,,,equivalent or reduced,
"CCCC([18F])CCCC/C=C\CCCCSCCC(=O)O (stereo not shown) [Reference Example 5, 3-{[(5Z)-11-[^18F]fluorotetradeca-5-en-1-yl]sulfanyl}propanoic acid]",1.27,1.17,1.54,2.10,slightly reduced,,4.79,3.60,3.21,2.78,,,,,,,,equivalent or reduced; also recorded: the accumulation in the bone was also observed
